Experimental data: patent US20160090555A1, “CLEANING AND/OR TREATMENT COMPOSITIONS COMPRISING MALODOR REDUCTION COMPOSITIONS” (The Procter & Gamble Company, priority 2014, published 2016)

Assays:
[1] = Blocker Index (BI), expert graders, isovaleric acid malodorous swatch; parameters: key: Blocker Index, 0–3 scale anchored by reference swatches (0 = clean swatch)
From the text: Blocker materials suitable for use in cleaning and/or treatment compositions of the present invention are chosen for their ability to decrease malodor, while not interfering with perception of a fragrance. Material selection is done by assigning two indices to a test sample material from two reference scales in order to rank odor strengths. The two reference scales are the Fragrance Fidelity Index (FFI) scale and the Blocker Index (BI) scale. The FFI ranks the ability of the test sample material to impart a perceivable odor which could cause interference when combined with another fragrance and the BI ranks the ability of the test sample material to reduce malodor perception. The two methods for assigning the indices to a test sample on the FFI and the BI reference scales are given below.
The first step in the method for assigning a BI to a test sample material on the BI reference scale is to create the BI reference swatches. […] Fabric swatches for this test are white knit polycotton (4 inch×4 inch) swatches from EMC ordered as PC 50/50. The supplier is instructed to strip the swatches first, stripping involves washing twice with a fragrance-free detergent and rinsing three times.
The BI scale contains one clean swatch with no malodor applied. […] These solutions are pipetted to the middle of the swatches. […] After drying for 30 minutes in a vented hood, the swatches are wrapped in aluminum foil to prevent odor contamination to the treated swatch. A clean untreated swatch is also included as the lowest anchor point of reference for malodor strength on the BI scale. The BI reference scale swatches should be used within 0.5 to 12 hours and discarded after 12 hours. The swatches are used as scale anchor points when graders evaluate a test sample(s) and are assigned a Blocker Index (BI) as show in Table 12.
The perfumer/expert grader is asked to rank order swatches according to a scale between 0 and 3.
The reference swatches represent the 0, 1, 2, and 3 BIs on the BI reference scale, Table 12. The expert grader should familiarizes him/herself with the strength of the odor on the BI reference swatches by sniffing each one starting at 0 (the lowest odor strength) and ending at 3 (the highest odor strength). This should be done prior to evaluating the swatch treated with the test material.
To evaluate the BI, the test material is applied to a malodorous swatch to determine how well the test material blocks the malodor. […] After drying the malodorous swatch a known concentration of test material solution, between 1 ppm and 100 ppm is pipetted onto the malodorous swatch. […] It is sometimes necessary to evaluate several levels of the test material between about 1 and about 100 ppm to determine the BI.
At least two perfumers/expert graders are used to assign the BI to the test sample. […] The test sample swatch is assigned a BI at or between numbers on the BI in table.

[2] = Fragrance Fidelity Index (FFI), expert graders, treated fabric swatch against ethyl vanillin reference scale
From the text: Blocker materials suitable for use in cleaning and/or treatment compositions of the present invention are chosen for their ability to decrease malodor, while not interfering with perception of a fragrance. Material selection is done by assigning two indices to a test sample material from two reference scales in order to rank odor strengths. The two reference scales are the Fragrance Fidelity Index (FFI) scale and the Blocker Index (BI) scale. The FFI ranks the ability of the test sample material to impart a perceivable odor which could cause interference when combined with another fragrance and the BI ranks the ability of the test sample material to reduce malodor perception. The two methods for assigning the indices to a test sample on the FFI and the BI reference scales are given below. The first step in the method for assigning an FFI to the test samples on the FFI reference scale is to create the FFI reference swatches. […] Fabric swatches for this test are white knit polycotton (4 inch×4 inch) swatches from EMC ordered as PC 50/50. The supplier is instructed to strip the swatches first, stripping involves washing twice with a fragrance-free detergent and rinsing three times. […] This will create a sensory scale of three swatches with three different odor levels based on the concentration of the solution pipetted onto the swatch. […] A clean untreated swatch is also included as the lowest anchor point of reference for odor strength on the FFI scale. […] The swatches are used as scale anchor points when graders evaluate a test sample(s) and are assigned a Fragrance Fidelity Index (FFI) as show in Table 7. […] This should be done prior to evaluating the test sample material treated swatch. […] At least two perfumers/expert graders are used to assign an FFI grade to a test sample.

[3] = test material at 10 ppm on isovaleric acid malodorous swatch
[4] = test material at 50 ppm on isovaleric acid malodorous swatch

SMILES: CC1(C)C2CCC3(C2)C1C(=O)CCC3(C)C (centres unmarked) [Material 1149]
- BI ([1]; Conc 10 ppm): 1.5
- BI ([1]; Conc 50 ppm): 2.3
- FFI ([2]; Conc 10 ppm): 0
- FFI ([2]; Conc 50 ppm): 0.8

SMILES: CCCCCCCCCCCCO [Material 174]
- BI ([1]; Conc 50 ppm): 2.3
- FFI ([2]; Conc 50 ppm): 0.5

SMILES: CC(=O)OCCCCCCC(C)C [Material 204]
- BI ([1]; Conc 10 ppm): 2.0
- BI ([1]; Conc 50 ppm): 2.7
- FFI ([2]; Conc 10 ppm): 0
- FFI ([2]; Conc 50 ppm): 0

SMILES: CC(CCO)CCc1ccccc1 (centres unmarked) [Material 962]
- BI ([1]; Conc 10 ppm): 2.3
- BI ([1]; Conc 50 ppm): 1.7
- FFI ([2]; Conc 10 ppm): 0
- FFI ([2]; Conc 50 ppm): 0.5

SMILES: O=C1CCC2CCCCC2O1 (centres unmarked) [3,4,4a,5,6,7,8,8a-octahydrochromen-2-one]
- BI ([1]; Conc 10 ppm): 2.0
- BI ([1]; Conc 50 ppm): 2.0
- FFI ([2]; Conc 10 ppm): 0
- FFI ([2]; Conc 50 ppm): 0

SMILES: CCCCCCCCCCCCCCCC(=O)OC [Material 109]
- BI ([1]; Conc 10 ppm): 2.0

SMILES: C=CC(C)=CCC=C(C)C [Material 524]
- BI ([1]; Conc 50 ppm): 2.8
- FFI ([2]; Conc 50 ppm): 0

SMILES: CCCCCCCCCCCC(=O)OCC [Material 391]
- BI ([1]; Conc 50 ppm): 2.2
- FFI ([2]; Conc 50 ppm): 0.3

SMILES: CCC(O)COC1CCCCC1C(C)(C)C (centres unmarked) [Material 677]
- BI ([1]; Conc 10 ppm): 2.3
- BI ([1]; Conc 50 ppm): 2.0
- FFI ([2]; Conc 10 ppm): 0
- FFI ([2]; Conc 50 ppm): 1.8

SMILES: CC1(C)CCc2ccc(CCC=O)cc21
- BI [1, 3]: 1.5
- BI [1, 4]: 2.7

SMILES: CC1CCC2(C(C)C)CC(C)OC2C1 (centres unmarked)
- BI [1, 3]: 2.0
- BI [1, 4]: 2.2

SMILES: CC(=O)OC1CC2CC1C1CC=CC21 (centres unmarked) [Material 281]
- BI ([1]; Conc 10 ppm): 2.0
- BI ([1]; Conc 50 ppm): 2.0
- FFI ([2]; Conc 10 ppm): 0
- FFI ([2]; Conc 50 ppm): 0.5

SMILES: CCOC(=O)OC1C(C)CCC(C)C1C (centres unmarked) [Material 1005]
- BI ([1]; Conc 50 ppm): 2.6
- FFI ([2]; Conc 50 ppm): 0.5

SMILES: CC(C)CC(=O)O [isovaleric acid, reference compound]
- BI grade of reference swatch, Ave ([1]; 2 μL 0.08% isovaleric acid, all graders (Table 10)): 1.0

SMILES: COC(=O)OC1CC/C=C\CCC1 (centres unmarked) [Material 1139]
- BI ([1]; Conc 10 ppm): 2.0
- BI ([1]; Conc 50 ppm): 2.7
- FFI ([2]; Conc 10 ppm): 0
- FFI ([2]; Conc 50 ppm): 1.0

SMILES: C=C1CCC2OC2(C)CCC2C1CC2(C)C (centres unmarked) [Material 1148]
- BI ([1]; Conc 50 ppm): 2.3
- FFI ([2]; Conc 50 ppm): 0.5

SMILES: CCCCCCCCCCCO [Undecanol]
- BI ([1]; Conc 50 ppm): 2.3
- FFI ([2]; Conc 50 ppm): 0.8

SMILES: CC(C)(C)C1CCCCC1 [4-tert-butyl cyclohexane]
- BI ([1]; Conc 10 ppm): 2.0
- BI ([1]; Conc 50 ppm): 2.0
- FFI ([2]; Conc 10 ppm): 0
- FFI ([2]; Conc 50 ppm): 0.3

SMILES: CC1(C)CCc2ccc(CCC=O)cc21 [Material 261]
- BI ([1]; Conc 10 ppm): 1.8
- BI ([1]; Conc 50 ppm): 1.3
- FFI ([2]; Conc 10 ppm): 0
- FFI ([2]; Conc 50 ppm): 1.3

SMILES: CCC(=O)OC1CC2C3C=CCC3C1C2(C)C (centres unmarked) [8,8-dimethyl-3a,4,5,6,7,7a-hexahydro-1H-4,7-methanoinden-6-yl propionate]
- BI [1, 3]: 1.5
- BI [1, 4]: 2.2
